Measured values taken from ChEMBL document CHEMBL1201862, “PubChem BioAssay data set” (2004).
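All cell lines were grown in 96-well plates and treated with compound for 48 hours. GI50 marks 50% less growth.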 Activity calls are given as the source filed them. Rule as the data show it: active = GI50 up to about 1.1 µM and inactive = higher.

Key:
Experiment in all cases: NCI anticancer screen, dose series, 48 h
SW-620 = system: SW-620
A498 = system: A498
UACC-62 = system: UACC-62
OVCAR-3 = system: OVCAR-3
SR = system: SR
OVCAR-4 = system: OVCAR-4
HCT-116 = system: HCT-116
SNB-19 = system: SNB-19
NCI-H522 = system: NCI-H522
NCI-H226 = system: NCI-H226
786-0 = system: 786-0
A549 = system: A549
KM12 = system: KM12
UO-31 = system: UO-31
MDA-MB-231 = system: MDA-MB-231
CAKI-1 = system: CAKI-1
HOP-92 = system: HOP-92
NCI-H460 = system: NCI-H460
SF-268 = system: SF-268
SK-MEL-5 = system: SK-MEL-5

Measured: GI50

N#CC1(C#N)C(c2ccccc2)NC23CCCCC2C1(C#N)C(=O)N3 (stereo unspecified)
inactive: SW-620 > 100 µM | A498 > 100 µM | UACC-62 > 100 µM | OVCAR-3 > 100 µM | SR 57.8 µM | OVCAR-4 > 100 µM | HCT-116 > 100 µM | SNB-19 > 100 µM | NCI-H522 > 100 µM | NCI-H226 > 100 µM | 786-0 > 100 µM | A549 > 100 µM | KM12 > 100 µM | UO-31 > 100 µM | MDA-MB-231 > 100 µM | CAKI-1 > 100 µM | HOP-92 > 100 µM | NCI-H460 > 100 µM | SF-268 > 100 µM

C/C(C[n+]1ccccc1)=N\N=C(N)N
inactive: SW-620 > 100 µM | A498 > 100 µM | UACC-62 > 100 µM | OVCAR-3 > 100 µM | OVCAR-4 > 100 µM | HCT-116 > 100 µM | SNB-19 > 100 µM | NCI-H522 > 100 µM | NCI-H226 > 100 µM | SK-MEL-5 > 100 µM | 786-0 > 100 µM | A549 > 100 µM | KM12 > 100 µM | UO-31 > 100 µM | MDA-MB-231 > 100 µM | CAKI-1 > 100 µM | HOP-92 > 100 µM | NCI-H460 > 100 µM | SF-268 > 100 µM

Nc1ccc(S(=O)(=O)c2ccc(NCN3C(=O)NC(=O)C(=O)C3=O)cc2)cc1 [ALLANTODAPSONE]
inactive: SW-620 > 100 µM | A498 > 100 µM | UACC-62 > 100 µM | OVCAR-3 > 100 µM | SR > 100 µM | OVCAR-4 > 100 µM | HCT-116 > 100 µM | SNB-19 > 100 µM | NCI-H522 > 100 µM | NCI-H226 > 100 µM | SK-MEL-5 > 100 µM | 786-0 > 100 µM | A549 > 100 µM | KM12 > 100 µM | UO-31 > 100 µM | MDA-MB-231 > 100 µM | CAKI-1 > 100 µM | HOP-92 > 100 µM | NCI-H460 > 100 µM | SF-268 > 100 µM

O=C1CCCC1C(O)(C(F)(F)Cl)C(F)(F)Cl (stereo unspecified)
inactive: SW-620 > 10 µM | A498 > 10 µM | UACC-62 > 10 µM | OVCAR-3 > 10 µM | SR > 10 µM | OVCAR-4 > 10 µM | HCT-116 > 10 µM | SNB-19 > 10 µM | NCI-H522 > 10 µM | NCI-H226 > 10 µM | SK-MEL-5 > 10 µM | 786-0 > 10 µM | A549 > 10 µM | KM12 > 10 µM | MDA-MB-231 > 10 µM | CAKI-1 > 10 µM | HOP-92 > 10 µM | NCI-H460 > 10 µM | SF-268 > 10 µM

CC(=O)c1ccc(NC(=O)/C(CC(=O)/C=C/c2ccccc2)=N/NC(N)=S)cc1
inactive: SW-620 > 100 µM | A498 > 100 µM | UACC-62 > 100 µM | OVCAR-3 > 100 µM | SR > 100 µM | OVCAR-4 49.5 µM | HCT-116 > 100 µM | NCI-H522 33.3 µM | NCI-H226 > 100 µM | SK-MEL-5 43.7 µM | 786-0 > 100 µM | A549 > 100 µM | KM12 44.4 µM | UO-31 41.1 µM | MDA-MB-231 > 100 µM | CAKI-1 > 100 µM | HOP-92 > 100 µM | NCI-H460 68.4 µM | SF-268 > 100 µM

COC(=O)/C=C1/N=C(N(C)/N=C/c2ccccc2)NC1=O
inactive: SW-620 > 100 µM | UACC-62 > 100 µM | OVCAR-3 > 100 µM | SR > 100 µM | OVCAR-4 > 100 µM | HCT-116 > 100 µM | SNB-19 > 100 µM | NCI-H522 > 100 µM | SK-MEL-5 > 100 µM | 786-0 > 100 µM | A549 > 100 µM | KM12 > 100 µM | UO-31 > 100 µM | MDA-MB-231 > 100 µM | CAKI-1 > 100 µM | NCI-H460 > 100 µM | SF-268 > 100 µM

CCOC(=O)c1c(Cl)nc2ccccc2c1N=[N+]=[N-]
inactive: SW-620 19.5 µM | A498 > 100 µM | OVCAR-3 19.5 µM | SR 32.7 µM | OVCAR-4 16.9 µM | HCT-116 20.7 µM | SNB-19 > 100 µM | NCI-H522 16.7 µM | NCI-H226 32.1 µM | SK-MEL-5 44.5 µM | A549 66.8 µM | KM12 16.2 µM | UO-31 18.7 µM | MDA-MB-231 16.2 µM | CAKI-1 20.2 µM | HOP-92 24.7 µM | NCI-H460 23.7 µM | SF-268 16.4 µM

O=C(Nc1nccs1)c1c(O)nc2sccn2c1=O
inactive: SW-620 > 10 µM | A498 > 10 µM | UACC-62 > 10 µM | OVCAR-3 > 10 µM | SR > 10 µM | OVCAR-4 > 10 µM | HCT-116 > 10 µM | SNB-19 > 10 µM | NCI-H522 > 10 µM | NCI-H226 > 10 µM | SK-MEL-5 > 10 µM | A549 > 10 µM | KM12 > 10 µM | UO-31 6.55 µM | MDA-MB-231 > 10 µM | CAKI-1 > 10 µM | NCI-H460 > 10 µM | SF-268 > 10 µM

CC(Cc1ccccc1)NC1=NCCO1 (stereo unspecified)
inactive: SW-620 34.3 µM | A498 29.8 µM | UACC-62 52.4 µM | SR 42.8 µM | OVCAR-4 36.2 µM | HCT-116 18 µM | SNB-19 35.6 µM | NCI-H522 59.6 µM | NCI-H226 > 100 µM | SK-MEL-5 32.3 µM | A549 38.8 µM | UO-31 23.6 µM | MDA-MB-231 16.2 µM | CAKI-1 > 100 µM | HOP-92 26.9 µM | NCI-H460 17.9 µM

O=C1CC(=O)NC(NN2C(=O)/C(=C/c3ccc(Cl)c(Cl)c3)N=C2c2ccccc2)=N1
inactive: SW-620 30.4 µM | A498 23.4 µM | UACC-62 15.7 µM | OVCAR-3 19.1 µM | SR 11.7 µM | OVCAR-4 49.3 µM | HCT-116 17.7 µM | NCI-H522 30.8 µM | NCI-H226 32.1 µM | SK-MEL-5 16.3 µM | 786-0 26.9 µM | A549 27.2 µM | KM12 16.4 µM | UO-31 29.6 µM | MDA-MB-231 17.1 µM | CAKI-1 85.3 µM | HOP-92 27 µM | NCI-H460 15.7 µM | SF-268 24.5 µM

CN1C(=O)N(C)C2(CCN(CC(CC3OCCO3)c3ccc(F)cc3)CC2)C1=O (stereo unspecified)
inactive: A498 > 100 µM | UACC-62 > 100 µM | OVCAR-3 > 100 µM | SR > 100 µM | OVCAR-4 > 100 µM | HCT-116 > 100 µM | SNB-19 > 100 µM | NCI-H522 > 100 µM | NCI-H226 > 100 µM | SK-MEL-5 > 100 µM | 786-0 > 100 µM | A549 > 100 µM | UO-31 > 100 µM | MDA-MB-231 > 100 µM | CAKI-1 > 100 µM | HOP-92 > 100 µM | SF-268 > 100 µM

O=C(CCc1ccc(O)cc1)NCCc1cccc(O)c1
inactive: A498 > 50 µM | UACC-62 > 50 µM | OVCAR-3 > 50 µM | SR > 50 µM | OVCAR-4 > 50 µM | HCT-116 > 50 µM | SNB-19 > 50 µM | NCI-H522 20.2 µM | SK-MEL-5 > 50 µM | 786-0 > 50 µM | A549 > 50 µM | KM12 > 50 µM | UO-31 > 50 µM | MDA-MB-231 > 50 µM | CAKI-1 > 50 µM | HOP-92 > 50 µM | NCI-H460 > 50 µM | SF-268 > 50 µM

COc1ccc(C[C@H]2COC(=O)[C@@H]2Cc2cccc(Br)c2)cc1OC
inactive: SW-620 22.5 µM | UACC-62 25.6 µM | OVCAR-3 20 µM | SR 3.05 µM | OVCAR-4 10.4 µM | HCT-116 12.8 µM | SNB-19 52 µM | NCI-H522 19.5 µM | NCI-H226 29.9 µM | SK-MEL-5 15.7 µM | 786-0 28.1 µM | A549 32.9 µM | KM12 18.8 µM | UO-31 22.9 µM | MDA-MB-231 19.1 µM | CAKI-1 15.3 µM | HOP-92 12.1 µM | NCI-H460 26.2 µM | SF-268 29.7 µM

NS(=O)(=O)c1ccc(/N=N/c2ccc(O)c(C(=O)O)c2)cc1 [SALAZOSULFAMIDE]
inactive: SW-620 > 100 µM | A498 > 100 µM | UACC-62 > 100 µM | OVCAR-3 > 100 µM | OVCAR-4 > 100 µM | HCT-116 > 100 µM | SNB-19 > 100 µM | NCI-H522 82.4 µM | NCI-H226 > 100 µM | SK-MEL-5 > 100 µM | 786-0 > 100 µM | A549 > 100 µM | KM12 > 100 µM | UO-31 > 100 µM | MDA-MB-231 > 100 µM | CAKI-1 > 100 µM | HOP-92 > 100 µM | NCI-H460 > 100 µM | SF-268 > 100 µM

CC(=O)OC1CC[C@]2(C)C3CC[C@@]4(C)C(CCC4[C@H](C)CCCC(C)C)[C@@H]3CCC2(Br)C1 (stereo partly specified)
inactive: SW-620 9.42 µM | A498 8.13 µM | UACC-62 21 µM | OVCAR-3 14.5 µM | SR 9.44 µM | OVCAR-4 11.7 µM | HCT-116 9.29 µM | SNB-19 27.4 µM | NCI-H522 10.3 µM | NCI-H226 > 50 µM | 786-0 8.49 µM | A549 19.8 µM | KM12 21.4 µM | UO-31 14 µM | MDA-MB-231 13.7 µM | CAKI-1 9.1 µM | HOP-92 19.7 µM | NCI-H460 39.7 µM | SF-268 11.7 µM
